In patent publication US20200254065A1, “LONG-ACTING GLP-2 ANALOGS” (OPKO Biologics Ltd., priority 2019, published 2020):
Square brackets hold non-standard residues; d marks the D form. Peptide text beside a SMILES is read from it. Nle = CCCC[C@H](N)C(=O)O

What was measured:
small intestine = experiment: Intestine weight model in rats; assay type: in vivo, SD rats
Outline: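 Rat intestinal growth model: conjugates given s.c. at 0.5–8.0 mg/kg peptide dose, as one injection, on days 1 and 3, or every 6 days; small intestine weighed on day 3, 6, 7, 10, 12 or 14. Histology (H&E, duodenum/jejunum/ileum) gave crypt+villus length. Both reported as % increase over vehicle.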

[1] = Pharmacokinetics of conjugated teduglutide in rats (commercial GLP2 ELISA kit); assay type: in vivo; conditions: SD rats
Protocol: Plasma samples were collected at pre-dose, 0.5, 2, 4, 8, 12, 24, 48, 72, 96, 168, 216, and 240 hours post dose. The levels of conjugates and free teduglutide were measured using commercial GLP2 ELISA kit.

[2] = Stability of GLP-2 analogues on incubation at 37° C. (appearance, O.D. reading, RP-HPLC); assay type: physicochemical; conditions: following 48 h incubation at 37° C.
Protocol: The GLP-2 analogues were tested for stability via appearance, O.D. reading (A.280, and A.325) and RP-HPLC (purity, and peak area) following t=0, 1 day, and 48 h incubation at 37° C.

[3] = PK after single SC injection in rats (LC-MS/MS); conditions: rat, in vivo, 2 mg/kg
Protocol: To support the pharmacodynamic effects of V4 and Cys-FMS-V4 as detailed in Example 9, a pharmacokinetic analysis was also conducted. In this study (Study reference 15204), all animals were injected SC on Day 1 with 2 mg/kg peptide content of V4, Cys-FMS-V4 and Apraglutide. Blood samples were collected at 2, 8, 12, 24, 36, 48, 72, 96, 120 hours, and Days 7, 8, 9, 10, 11, 12, 13 and 14 post-dose administration and subsequently taken to LC-MS/MS analysis to determine plasma levels of each compound. For Cys-FMS-V4, a 2-analyte method was applied to determine the plasma concentrations of both the full conjugate and the V4 that was hydrolyzed from it (V4 hydrolyzed). Plasma concentrations (μM), as measured by using the LC-MS/MS method, of V4 peptide, Cys-FMS-V4, hydrolyzed V4, and Apraglutide are presented in FIG. 17.

[4] = 2-compartmental pharmacokinetic modelling (MONOLIX 2018R2); assay type: in vivo, rat; conditions: rat, in vivo
Protocol: An in-depth PK modeling was performed to address the unexpected differences in half life, distribution, and pharmacological effect between V4, Cys-FMS-V4, and Apraglutide in the rat model. The analysis was performed with MONOLIX 2018R2 suite using a 2-compartmental pharmacokinetic model. The data used in this analysis was comprised from 3 independent experiments (data is presented as their average). The concentration versus time data of V4 that was formed from the Cys-FMS-V4 conjugate (the hydrolyzed peptide) was described appropriately using the values of the pharmacokinetic parameters of V4 peptide. Thus, the disposition of the hydrolyzed V4 was identical to that of the V4 peptide following the IV and SC administration.
The pharmacokinetics of Apraglutide in our studies was determined after SC administration. […] Based on this assumption, the values of volumes of distribution and clearance (Vpept, Vss, Vbeta, and CL) were calculated for Apraglutide (Table 13). The values of the other parameters of Apraglutide in Table 14 (the rate constants and the half-lives) are not dependent on this assumption.

[5] = Apraglutide, as previously reported, cited from earlier work
GLP-2 receptor = target: T1, GLP-2 receptor (Homo sapiens, UniProt O95838); experiment: GLP-2 receptor Cell Based Assay (CBA); conditions: EC50 (nM) Average, average of 3 independent CBA; different GLP-2R Assay Kit lot (Table 8)
T1 sequence (O95838 1-553): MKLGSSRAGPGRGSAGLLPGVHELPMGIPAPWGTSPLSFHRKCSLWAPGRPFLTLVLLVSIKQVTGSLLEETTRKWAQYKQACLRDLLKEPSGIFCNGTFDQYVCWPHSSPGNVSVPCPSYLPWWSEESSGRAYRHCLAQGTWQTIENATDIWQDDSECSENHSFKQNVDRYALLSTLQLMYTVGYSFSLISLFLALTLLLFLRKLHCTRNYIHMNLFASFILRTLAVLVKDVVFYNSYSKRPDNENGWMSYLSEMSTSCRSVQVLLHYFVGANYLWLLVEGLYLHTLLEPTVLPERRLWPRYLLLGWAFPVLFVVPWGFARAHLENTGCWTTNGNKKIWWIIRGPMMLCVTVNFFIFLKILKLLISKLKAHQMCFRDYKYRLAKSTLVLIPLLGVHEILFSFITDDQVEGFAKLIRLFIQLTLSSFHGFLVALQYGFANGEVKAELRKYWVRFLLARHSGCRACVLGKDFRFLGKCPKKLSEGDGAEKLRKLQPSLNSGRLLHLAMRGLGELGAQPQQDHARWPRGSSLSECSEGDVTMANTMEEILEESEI
Protocol: Evaluation of in vitro binding affinity of the different peptides was assessed by using Cell Based Assay (CBA) in the presence of escalating doses of the different peptides.

[6] = circulating native GLP-2; in humans; cited from earlier work

In the case of `CC[C@H](C)[C@H](NC(=O)[C@H](Cc1ccccc1)NC(=O)[C@H](CC(=O)O)NC(=O)[C@H](CCCNC(=N)N)NC(=O)[C@H](C)NC(=O)[C@H](C)NC(=O)[C@H](CC(C)C)NC(=O)[C@H](CC(N)=O)NC(=O)[C@H](CC(=O)O)NC(=O)[C@H](CC(C)C)NC(=O)[C@@H](NC(=O)[C@@H](NC(=O)[C@H](CC(N)=O)NC(=O)[C@H](CCSC)NC(=O)[C@H](CCC(=O)O)NC(=O)[C@H](CC(=O)O)NC(=O)[C@H](CO)NC(=O)[C@H](Cc1ccccc1)NC(=O)[C@H](CO)NC(=O)CNC(=O)[C@H](CC(=O)O)NC(=O)CNC(=O)[C@@H](N)Cc1c[nH]cn1)[C@@H](C)O)[C@@H](C)CC)C(=O)N[C@@H](CC(N)=O)C(=O)N[C@@H](Cc1c[nH]c2ccccc12)C(=O)N[C@@H](CC(C)C)C(=O)N[C@H](C(=O)N[C@@H](CCC(N)=O)C(=O)N[C@H](C(=O)N[C@@H](CCCCN)C(=O)N[C@H](C(=O)N[C@H](C(=O)N[C@@H](CC(=O)O)C(=O)O)[C@@H](C)O)[C@@H](C)CC)[C@@H](C)O)[C@@H](C)CC` [GLP-2-Gly2, reference compound], the “Increase of intestine weight over vehicle (%)” value (shortened to “Increase … (%)”) (small intestine; 2.5 mg/kg daily injections for five days (5 injections), average of five studies) is reported as 25%, the “Average Intestine weight (gr)” value (small intestine; SD rats, SC on days 1 and 3 at 1 mg/kg peptide dose (2 injections), intestine weight on day 6) is reported as 5.7 gr and the “Increase … (%)” value (small intestine; SD rats, SC on days 1 and 3 at 1 mg/kg peptide dose (2 injections), intestine weight on day 6, listed as GLP-2-Gly2 (Teduglutide), 1 mg/kg) is reported as 5%. The “Increase … (%)” value (small intestine; SD rats, SC on days 1 and 3 at 1 mg/kg peptide dose (2 injections), intestine weight on day 6, listed as teduglutide, 1 mg/kg) was “did not increase intestine weight compared to vehicle”, the “Time up to which detectable in plasma” value ([1]; single injection) was “up to 4 hours” and the half-life ([1]; rat, plasma, injected once at 2 mg/kg peptide dose, read-out: Half-Life (t1/2, hr) (converted)) was 0.9 h.

For `CCCC[C@H](NC(=O)[C@H](CCC(=O)O)NC(=O)[C@H](CC(=O)O)NC(=O)[C@H](CO)NC(=O)[C@H](Cc1ccccc1)NC(=O)[C@H](CO)NC(=O)CNC(=O)[C@H](CC(=O)O)NC(=O)CNC(=O)[C@@H](N)Cc1cnc[nH]1)C(=O)N[C@H](Cc1ccccc1)C(=O)N[C@H](C(=O)N[C@H](C(=O)N[C@@H](CC(C)C)C(=O)N[C@@H](CC(=O)O)C(=O)N[C@@H](CC(C)C)C(=O)N[C@@H](CC(C)C)C(=O)N[C@@H](C)C(=O)N[C@@H](C)C(=O)N[C@@H](CCCNC(=N)N)C(=O)N[C@@H](CC(=O)O)C(=O)N[C@@H](Cc1ccccc1)C(=O)N[C@H](C(=O)N[C@@H](CC(N)=O)C(=O)N[C@@H](Cc1c[nH]c2ccccc12)C(=O)N[C@@H](CC(C)C)C(=O)N[C@H](C(=O)N[C@@H](CCC(N)=O)C(=O)N[C@H](C(=O)N[C@@H](CCCCN)C(=O)N[C@H](C(=O)N[C@H](C(=O)N[C@@H](CC(=O)O)C(N)=O)[C@@H](C)O)[C@@H](C)CC)[C@@H](C)O)[C@@H](C)CC)[C@@H](C)CC)[C@@H](C)CC)[C@@H](C)O` [Variant 1, reference compound] (H-HGDGSFSDE[Nle][dF]TILDLLAARDFINWLIQTKITD-NH2), the Solubility via appearance [2] was “V1: opaque”, the “Stability via RP-HPLC main peak” value ([2]; change of main peak) was “V1: −20%” and the AUC(0-inf) [3] was 29.4 µM·h. For the same compound, the AUC(0-t) [3] was 29.2 µM·h, the CL/F [3] was 0.3 mL/min/kg and the Cmax [3] was 1950 nM. For the same compound, the “Time post injection up to which detectable in blood” value [3] was no more than 120 h, the Tmax [3] was 8 h and the Vd/F [3] was 0.38 L/kg. The half-life [3] was 14.5 h, the k12 [4] was 0.0065 h⁻¹ and the k21 [4] was 0.0068 h⁻¹. For the same compound, the “ka—pept” value [4] was 0.1661 h⁻¹, the kpepte [4] was 0.0855 h⁻¹ and the CL ([4]; sc) was 0.222 mL/min/kg. It also gave a Vd ([4]; sc) of 2.12 L/kg, a Vpept ([4]; sc) of 0.156 L/kg and a Vss ([4]; sc) of 0.303 L/kg. The half-life ([4]; sc, t1/2 absorption) was 4.17 h, the half-life ([4]; t1/2 alpha) was 7.5 h and the half-life ([4]; t1/2 beta) was 110 h. The Fpept ([5]; assumed absolute SC bioavailability in rats) was 0.74, the “Absolute bioavailability following SC administration in rats” value ([5]; assumed) was 74% and the EC50 (GLP-2 receptor) was 1.7 nM.

For “NH2-HADGSFSDEMNTILDNLAARDFINWLIQTKITD-COOH [native GLP-2]”, the “Biological (in vivo) half-life” value [6] is listed as “approximately 7 minutes”.
